From patent publication US8927502B2, “Embedded chimeric peptide nucleic acids and uses thereof” (ICahn School of Medicine at Mount Sinai, priority 2010, dated 2015)
Where two headings read alike, the source gives them in different places.

How the values were obtained:
[1] = test system: human γ-globin gene in MBC-βYAC cells; experiment: γ-globin expression by quantitative RT-PCR in β-YAC mouse bone marrow cells; assay type: cell-based
From the text: To test this, a line of mouse bone marrow cells engineered to carry a yeast artificial chromosome that contains the complete human β-like globin locus (β-YAC) was used.
After treatment, cells were harvested and mRNA was extracted for reverse transcriptase (RT)-quantitative polymerase chain reaction (qPCR) using two different sets of published primers that recognize sequences within the γ-globin gene.
Total RNA from β-YAC MBCs were isolated with a RNeasy micro kit (Qiagen) following the manufacturer's instructions. RNA concentrations were quantified using a Nanodrop. Reverse transcription of RNA was performed with Promega's Reverse Transcription System and expression levels were quantified using a Quantitect SYBR Green PCR kit from Qiagen in conjunction with an ABI PRISM 7900HT and SDS software [see Lohmann, F. & Bieker, J. J. supra] Q-PCR results for globin expression were normalized by 2−[(Ct γ−Ct β)−(Ct γ [no PNA]−Ct β [noPNA])][see Livak, K. J. & Schmittgen, T. D., Analysis of relative gene expression data using real-time quantitative PCR and the 2(−Delta Delta C(T)) Method. Methods 25, 402-408 (2001)] divided by the PNA incorporation efficiency (determined from the live cell image data). Each reaction was performed in triplicate.

[2] = test system: γ-globin promoter luciferase reporter; assay type: cell-based, human
Method: The γ-globin reporter contained a 1.5 Kb Human HS2 fragment upstream of the −299 to +37 human γ-globin promoter in Promega's (Madison, Wis.) pGL2 Basic plasmid. [See Caterina, J. J., Donze, D., Sun, C. […] Nucleic Acids Res 22, 2383-2391 (1994).]
Transfection of K562 cells was performed using the DMRIE lipofection method (Gibco, Invitrogen, Carlsbad, Calif.). K562 cells were counted and 1×10^5 cells were resuspended in 0.1 mL OPTI-MEM in a 12-well plate (BD Falcon, Franklin Lakes, N.J.). Experiments were all done in triplicates. 1.5 ng Renilla plasmid (Promega Corporation. Madison, Wis.) and 0.5 μg reporter construct were added to each well. After 2 hours of transfection, PNAs were added to a final concentration of 10 μM. 2 hours later, 1 ml RPMI and a final concentration of 10% FBS were added to each well. This was followed by incubation at 37° C. for 36 hours.
36 hours after PNA addition, K562 cells were collected by centrifugation at 2500 rpm. Media was discarded and cells were washed once with 1×PBS and resuspended in 250 μL 1× passive lysis buffer (PLB) (Promega). Tubes that contained cells were put on a rocker platform for 10 minutes at room temperature. Cells were then centrifuged at 13000 rpm and resuspended in 200 μL 1×PLB, loaded on a 96 well plate and further analyzed with a Turner Biosystem Microplate Luminometer. […] Mol Cell Biol 27, 8547-8560 (2007).] Luciferase values were divided by the Renilla value from the same sample after it had been divided by 1000. To minimize the differences in between loading, each sample was loaded in three different wells and the average of three was calculated.

[3] = test system: PNA78 target sequence/minimal SV40 promoter luciferase reporter in 293T cells; experiment: Luciferase reporter with four repeats of PNA78 target sequence and minimal SV40 promoter in 293T cells; assay type: cell-based
[4] = test system: PNA78 target sequence/minimal SV40 promoter luciferase reporter in K562 cells; experiment: Luciferase reporter with four repeats of PNA78 target sequence and minimal SV40 promoter in K562 cells; assay type: cell-based, human
[5] = test system: human γ-globin promoter DNA oligonucleotide (wild type or mutated target sequence); conditions: for binding of PNA to its target DNA oligo (bound/input): wild type vs mutant oligo, PNA 0-10 μM, 37° C. overnight
Method: FIG. 1 depicts in vitro target binding specificity of four PNAs designed to interact with the human γ-globin promoter. […] The relative location of known promoter elements within this region is also indicated. Orientation of the PNA molecule relative to the promoter sequence is shown above, with a lys at its 3′-end and a biotin molecule (circle) attached at the 5′-end. In FIG. 1(b), different concentrations of PNAs (0-10 μM) were incubated with a constant amount of radioactively labeled DNA oligonucleotide (10 nM) containing either the wild type (wt) or mutated (mut) target sequence followed by incubation with streptavidin Dynabeads and collection with a magnetic particle concentrator. Bound/input ratios were obtained after scintillation counter analysis. […] The A+G sequence ladder is shown in lane 1, along with the nucleotide sequence of the γ-globin promoter aligned on the left.
A novel assay was developed to monitor specific binding of PNA molecules to their cognate DNA site (FIG. 1(b)). 2 ng of ^32P-labelled double-stranded DNA oligonucleotide (designed at regions of the γ-promoter centered at each of the four PNA target sites) was incubated with various molar excess (0× to 1000×) of PNA at 37° C. overnight in a final volume of 15 uL with 10 mM Tris and 1 mM of EDTA. The resultant material was incubated with equal amount of Dynabeads M280-streptavidin (DYNAL biotech) for […] at 25° C. Beads had been prepared by washing twice with BW buffer (10 mM Tris, pH7.5, 1 mM EDTA, 2.0M NaCl). The beads were pulled down with a Dynal MPC-S magnetic particle concentrator and washed twice with BW buffer. Samples were finally suspended in 50 uL BW buffer, and radioactivity was counted for 10 minutes in a scintillation counter to yield the average counts per minute (cpm) taken for each sample, which was then divided by the cpm of the input (1 uL of the radio-labeled oligo).

[6] = test system: endogenous γ-globin promoter; experiment: Chromatin association assay in K562 cells (streptavidin bead pull-down, quantitative PCR); assay type: cell-based, human; conditions: 10 μM in K562 cells
From the text: To determine whether PNA78 can interact with its target site in vivo, a modification of the chromatin immunoprecipitation assay was developed. […] Along with the “no addition” negative control, a variant of PNA78 that contain two point mutations (MUT PNA78) was synthesized and used it as an additional negative control along with a “TAT alone” control.
This assay incorporates elements of chromatin [see Siatecka, M., Xue, L. & Bieker, J. J., Sumoylation of EKLF promotes transcriptional repression and is involved in inhibition of megakaryopoiesis, Mol Cell Biol 27, 8547-8560 (2007)] and biotinylated protein [see Viens, A., Mechold, U., Lehrmann, H., Harel-Bellan, A. & Ogryzko, V., Use of protein biotinylation in vivo for chromatin immunoprecipitation. Anal Biochem 325, 68-76 (2004)] immunoprecipitation protocols. PNA 78/TAT or mutant (MUT) PNA 78/TAT were added to 10^7 K562 cells to a final concentration of 10 μM. After […], a portion of the cells were analyzed and quantified for PNA incorporation efficiency by confocal analysis of live cells (as above), and the rest were harvested and cross-linked with 0.4% formaldehyde (Fisher Scientific, F79-500) for 10 minutes in room temperature then quenched by addition of glycine in the final concentration of 0.125 M for another 10 minutes. […]
After 16 hours of incubation of K562 cells, any formed PNA-chromatin complex was cross-linked and cells were disrupted and chromatin was sheared by sonication. […] The DNA was purified for sequence identification by quantitative PCR. To more precisely quantitate the extent of PNA entry into the nucleus, a portion of the cells from each treatment was collected, stained with the DRAQ5 live-cell nuclear stain, attached to chamber-slides, and inspected under confocal microscopy to compare PNA and TAT nuclear entry efficiency.
One microliter of DNA was used in 20 μl of quantitative PCR reaction using a Quantitect SYBR Green PCR kit from Qiagen (Valenica, Calif.) and the presence of γ-globin promoter sequences was quantified with an ABI PRISM 7900HT and SDS software. […]

[7] = test system: γ-globin promoter region −299 to +37; conditions: PNA 50 uM, overnight at 37° C.
Method: To further confirm the observation in the magnetic-pull down assay, permanganate (KMnO4) probing of the PNA78/DNA interaction in solution was carried out (FIG. 1(c)). […] Methods Mol Biol 208, 91-109 (2002)], 1 ng of a singly ^32P-end-labeled, gel purified RsaI/XhoI fragment derived from the p250 plasmid that contains the γ-globin promoter region −299 to +37 was incubated in a volume of 15 μL with a final concentration of 10 mM Tris and 1 mM EDTA for 30 minutes at 37° C. PNA was added at a final concentration of 50 uM for further incubation overnight at 37° C. 1 uL 20 mM KMnO4 was added to the reaction, and after 15 s 10 uL stop buffer (1.5 M sodium acetate, 1 M 2-mercaptoethanol, Ph 7.0) was added. 2.5× vol of 96% ethanol was added and the DNA collected by centrifugation at 13000 rpm for 15 minutes. The supernatant was removed and the DNA pellet dissolved in 100 uL 10% piperidine followed by incubation at 90° C. for 20 minutes. The lympholized DNA sample was resuspended in 8 μL FA buffer (80% deionized fomamide, 10 mM EDTA, 0.25% xylenecyanol FF, 0.25% bromphenol blue). DNA was denatured at 90° C. for 2 minutes, chilled on ice, and then electrophoresed on thin 10% polyacrylamide gels containing 7 M urea. The dried gel was then exposed for autoradiography.

[8] = test system: γ-globin protein in MBC-βYAC cells; conditions: not detectable in untreated cells
Method: K562 cells were also stained and served as a positive control for γ-globin protein detection (arrowheads).
At 48 hours post-PNA treatment, 100K MBC-βYAC cells were collected and spun onto frosted slides (Fisher) in a Shandon Cytospin 2 centrifuge at 500 rpm for 5 minutes. All steps were carried out at room temperature except when indicated. Cells were fixed for 4 minutes in ice-cold acetone/methanol (1:1) on ice and rinsed twice with 2% BSA/PBS. Samples were then incubated with blocking solution (10% FCS, 0.05% NP40/PBS) for 30 minutes followed by a two-hour incubation with hemoglobin γ antibody (Santa Cruz Biotechnology, sc-21756) diluted 1:100 in blocking solution. Slides were washed 3× with 2% BSA, 0.05% NP40/PBS and then incubated with goat anti-mouse secondary antibody conjugated to Alexa 568 (Invitrogen) at a 1:50 dilution for one hour in a dark chamber. Slides were then washed 3× with 2% BSA/PBS with a final rinse in PBS and mounted with DAPI-containing Vectashield. DAPI and Alexa568 images were visualized on a Zeiss spinning disc confocal microscope (PerkinElmer).

[9] = test system: γ-globin protein in human peripheral blood CD34+ cells
Method: (§1) K562 cells served as a positive control. FIG. 13(c) contains dot plots and histograms from toxicity analysis by flow cytometry of cultured CD34+ cells after PNA treatment.
(§2) Purified CD34+ cells were cultured, treated at the end of day 2 with the various PNA chimeras or with no PNA, and harvested 16 hours later for analysis.

[10] = test system: γ-globin expression in human mobilized peripheral blood CD34+ cells; conditions: treated at end of day 2, harvested 16 hours later
Method: as §1, §2

[11] = wild type γ-promoter, 10 μM, 36 hours

Bio-OO-CGSDALDDFDLDML-O-TACTCTAAGACTATT-O-YGRKKRRQRRR [Bio-ATF/PNA78/TAT]
ability to activate γ-globin expression ([1]; biotin at the extreme 5′ end): precluded its ability to activate γ-globin expression

Bio-OO-DFDLDMLGDFDLDMLG-O-TACTCTAAGACTATT-O-YGRKKRRQRRR [VP2/PNA78/TAT]
effect on activity of γ-globin luciferase reporter (superactivation) [2, 11]: little effect beyond that seen with PNA78/TAT
luciferase activity increase [3]: not observed at all
luciferase activity increase compared to non-treated cells [4]: 2.3 fold

Biotin-OO-GAGTTTAGCCAGG-O-k [PNA150]
binding of PNA to its target DNA oligo (bound/input) [5]: did not discriminate or bind well

Biotin-OO-GGCTATTGGTCAAGGC-k [PNA116]
binding to the mutant DNA target [5]: bound to the mutant DNA target to an unacceptable extent
binding of PNA to its target DNA oligo (bound/input) [5]: bound their target DNA oligo in proportion to their input

Biotin-OO-TACTATAAAACTATT-O-YGRKKRRQRRR [MUT PNA78/TAT]
interaction with target sequence within the γ-globin promoter (quantitative PCR of precipitated DNA) [6]: not higher than the ‘no addition’ control

Biotin-OO-TACTCTAAGACTATT-O-PKKKRKV [PNA78/NLS]
effect on activity of γ-globin luciferase reporter (superactivation) [2, 11]: mild

Biotin-OO-TACTCTAAGACTATT-O-YGRKKRRQRRR [PNA78/TAT]
effect on activity of γ-globin luciferase reporter (superactivation) [2]: stronger
superactivation of γ-promoter reporter mutated at the PNA78 target site [2]: negated its ability to be superactivated
interaction with target sequence within the γ-globin promoter (quantitative PCR of precipitated DNA) [6]: greater than the non-specific MUT PNA78 and TAT alone

Biotin-OO-TACTCTAAGACTATT-O-k [PNA78]
binding to target region within the γ-globin promoter fragment [7]: binds specifically to its target region
discrimination between wild type and mutant oligos [5]: ~25 fold
binding of PNA to its target DNA oligo (bound/input) [5]: bound their target DNA oligo in proportion to their input

Biotin-OO-TGTGGAACTGCTGAA-O-k [PNA7]
binding of PNA to its target DNA oligo (bound/input) [5]: did not discriminate or bind well

H2N-CGSDALDDFDLDML-Biotin-O-TACTCTAAGACTATT-O-YGRKKRRQRRR [ATF-Bio/PNA78/TAT]
γ-globin protein expression in the cytoplasm [8]: levels approaching that seen in uninduced K562 cells
increase of γ-globin levels/expression ([1]; 16 hours after PNA treatment, in comparison to cells treated with PNA78/TAT alone): 7 fold
γ-globin protein accumulation [9]: γ-globin protein accumulation solely in those cells
cells positive for γ-globin protein ([9]; visual analysis of ≧100 cells per field): 22%
increase of γ-globin expression compared to untreated cells [10]: ~5 fold

YGRKKRRQRRR [TAT alone, reference compound]
effect on activity of γ-globin luciferase reporter (superactivation) [2, 11]: no effect
interaction with target sequence within the γ-globin promoter (quantitative PCR of precipitated DNA) [6]: not higher than the ‘no addition’ control
